How the values were obtained:
[1] = molecular target: T1, M2 muscarinic receptor (M2 wt) (Homo sapiens, UniProt P08172); test: slowing of [3H]NMS dissociation by cold NMS, CHO membranes; format: binding; details: second site; allosteric; apparent affinity for the receptor-[3H]NMS complex; slope factor nH fitted; pH […] °C, […] NaCl, […] MgCl2
T1 construct: gene CHRM2
T1 sequence (P08172 1-466): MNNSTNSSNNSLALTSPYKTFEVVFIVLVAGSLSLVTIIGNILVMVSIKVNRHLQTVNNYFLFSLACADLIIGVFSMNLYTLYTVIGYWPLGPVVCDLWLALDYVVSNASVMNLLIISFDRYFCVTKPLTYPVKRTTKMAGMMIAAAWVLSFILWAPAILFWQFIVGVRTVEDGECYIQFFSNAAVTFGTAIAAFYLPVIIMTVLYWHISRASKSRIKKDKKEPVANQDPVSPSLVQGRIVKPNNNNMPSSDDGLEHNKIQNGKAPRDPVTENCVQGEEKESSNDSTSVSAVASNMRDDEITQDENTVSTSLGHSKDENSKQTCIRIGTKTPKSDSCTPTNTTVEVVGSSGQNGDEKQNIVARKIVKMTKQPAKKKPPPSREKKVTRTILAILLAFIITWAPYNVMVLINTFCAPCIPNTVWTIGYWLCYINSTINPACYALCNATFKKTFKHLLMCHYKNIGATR

[2] = molecular target: T2, M5 muscarinic receptor (Homo sapiens, UniProt P08912); test: as above; format: binding; details: second site; allosteric; apparent affinity for the receptor-[3H]NMS complex; slope factor nH fitted; pH […] °C, […] NaCl, […] MgCl2
T2 construct: gene CHRM5; expressed in CHO cells, membranes; species printed only for M2 and M3
T2 sequence (P08912 1-532): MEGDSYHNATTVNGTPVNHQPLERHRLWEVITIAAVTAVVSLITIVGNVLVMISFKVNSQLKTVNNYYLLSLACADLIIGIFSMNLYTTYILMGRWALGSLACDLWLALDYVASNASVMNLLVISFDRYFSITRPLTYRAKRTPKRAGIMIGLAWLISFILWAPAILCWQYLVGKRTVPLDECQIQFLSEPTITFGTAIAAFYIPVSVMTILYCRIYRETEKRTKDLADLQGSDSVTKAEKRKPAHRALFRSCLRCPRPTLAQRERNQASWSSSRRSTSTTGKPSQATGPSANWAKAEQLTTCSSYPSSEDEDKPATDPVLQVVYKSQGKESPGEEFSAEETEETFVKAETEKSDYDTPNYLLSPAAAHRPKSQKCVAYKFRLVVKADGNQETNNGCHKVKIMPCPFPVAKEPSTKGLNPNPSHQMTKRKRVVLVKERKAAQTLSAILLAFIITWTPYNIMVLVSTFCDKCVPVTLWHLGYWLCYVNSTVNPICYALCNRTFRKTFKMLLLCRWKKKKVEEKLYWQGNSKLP
Source text: slowing of [3H]NMS dissociation by cold NMS, CHO membranes on M5 muscarinic receptor

Q: `C[N+]1(C)[C@@H]2C[C@@H](OC(=O)[C@H](CO)c3ccccc3)C[C@H]1[C@@H]1O[C@@H]12` [N-methylscopolamine] was tested. Which “NMS / pKA” value [1] did it give?
A: 3.62 ± 0.03 negative logarithm

Q: What about the “NMS / pKA” value [2] of the same compound?
A: 3.86 ± 0.03 negative logarithm
